Reference: a melting point compilation (Tetko et al.; mined from patent text by program, amines drawn as free bases though some values may be those of a salt)

| melting point | Structure (SMILES) |
| --- | --- |
| 82 to 84 °C | O=C(CCC#Cc1ccccn1)Nc1ccccc1F |
| 172 to 174 °C | COc1cc2c(cc1OC)C1CCC(O)CC1N=C2c1ccc(OCC2CC2)c(OCC2CC2)c1 (stereo unspecified) |
| 230 to 232 °C | Cc1[nH]cnc1/C=C1\CCCc2c(c3ccccc3n2C)C1=O |
| 120 to 122 °C | COc1cc(C(F)(F)F)cc(OC)c1C(=O)CCl |
| 83 to 85 °C | O=C(NC[C@@H]1CN2C(=O)C[C@H]2O1)C1CCCCC1 (racemic) |
| 205 °C | COc1ccc(CC(NC(c2ccccc2)c2ccccc2)P(O)O)cc1OC (stereo unspecified) |
| 111 to 113 °C | FC(F)(F)c1cc(CO[C@H]2CCCN(Cc3cccnn3)[C@H]2c2ccccc2)cc(C(F)(F)F)c1 |
| 72.2 to 73.3 °C | COc1ccc(Cc2nnsc2-c2cccs2)cc1 |
| 218 to 220 °C | CC(=O)NC(CSSc1ccccc1C(=O)Nc1ccc(S(N)(=O)=O)cc1)C(=O)O (stereo unspecified) |
| 159 °C | Cc1c(O)c(C)c(CS)c(C)c1CS |
| 143 to 146 °C | COc1ccc(-c2cn[nH]c2N)cc1OC |
| 205 to 207 °C | CN(Cc1ccccc1)Cc1c(-c2ccc(N)cc2)sc2c1c(=O)n(-c1ccccc1)c(=O)n2Cc1c(F)cccc1F |
| 110 °C | COc1cc(Nc2nccc(S(=O)(=O)c3ccccc3)n2)cc(OC)c1OC |
| 152 to 155 °C | Oc1ccc2sc3ccccc3c2c1 |
| 186 to 187 °C | CCOC(=O)C1=NN(C(=O)c2ccccc2I)C(C(=O)OCC)=NN1C(=O)c1ccccc1I |
| 147 to 148 °C | Cc1cccc(C)c1CNc1cc(Br)cc2c1nc(C)n2COCc1ccccc1 |
| 85 to 86 °C | CSc1ccc(C)c2onc(OCCNC(=O)OC(C)(C)C)c12 |
| 141 to 143 °C | CCCOc1ccc(S(=O)(=O)C(C)C)cc1-c1nc2c(CC)nn(C[C@@H]3CCCN3C(=O)OC(C)(C)C)c2c(=O)[nH]1 |
| 256 °C | Nc1ncc(CCN2CCC(C(=O)c3ccc(F)cc3)CC2)c(O)n1 |
| 170 to 172 °C | CNS(=O)(=O)Nc1ccc(OCC2CCN(c3ccncc3)CC2)cc1 |
| 127 to 128 °C | O=C1CCc2c1ccc1c2CCc2ccccc2-1 |
| 235 to 237 °C | Cc1ccc(-c2ccc(C(=O)Nc3ccc4cc(CN5C(C)(C)CCCC5(C)C)ccc4c3)cc2)cc1 |
| 132 to 133 °C | C[C@]1(CN2CCN(C(=O)OCC=Cc3ccc(C(F)(F)F)cc3)CC2)Cn2cc([N+](=O)[O-])nc2O1 |

| melting point | Structure (SMILES) |
| --- | --- |
| 168 to 170 °C | Clc1ccc2c(c1)N=C(NCCn1ccnc1)c1ccccc1N2 |
| 180 to 181 °C | COC1(c2cc(F)cc(S(=O)(=O)c3ccc(/C(C)=N/O)cc3)c2)CCOCC1 |
| 80 to 82 °C | Cc1cc2ncnn2nc1OCCOCCN1CCC(OC(c2ccccc2)c2ccccc2)CC1 |
| 152 to 154 °C | O=C(NC(=O)c1ccc(OCCn2ccnc2)cc1)c1ccccc1 |
| 282 to 283 °C | COc1cc(Nc2c(C#N)cnc3cc(-c4ccc(C(=O)O)cc4)ccc23)c(Cl)cc1Cl |
| 78 °C | COc1c(Cl)cc(OCC=C(Cl)Cl)cc1C=O |
| 192 to 194 °C | O=C(O)c1cc(=O)c2cc(OC(F)(F)F)ccc2o1 |
| 75 to 76 °C | CCOC(=O)C(C)(C)OCc1oc(-c2ccc(Cl)cc2)nc1C |
| 76 to 78 °C | c1cc2c(cc1CCSSCCc1ccc3c(c1)OCO3)OCO2 |
| 125 °C | CC(=O)N1C(=O)N(c2cc(Cl)cc(Cl)c2)C(=O)[C@]12CNC[C@H]2c1ccc(C#N)cc1 (relative stereo) |
| 155 to 159 °C | CSCCC(NC(=O)OCc1ccccc1)C(=O)Nc1nncs1 (racemic) |
| 189 to 195 °C | CC(=O)c1ccc(C(=O)O)o1 |
| 303 to 305 °C | Cc1cc2c(-c3ccccc3)c(CNC(=O)c3cc4ccccc4[nH]3)n(C)c(=O)c2cc1C |
| 176 to 177 °C | Cc1nc2c3c(ccn2c1C)C(=O)CC(c1ccsc1)N3 (stereo unspecified) |
| 76 to 79 °C | C=CCOc1ccccc1OCC(O)CNC(C)C (stereo unspecified) |
| 130 °C | CCOC(=O)c1ccc(OCCC2CCN(c3ccc(C)nn3)CC2)cc1 |
| 120 °C | COC(=O)C(C)Oc1ccc(N(C)c2nc3cc(Cl)ccc3s2)cc1 (stereo unspecified) |
| 129 to 130 °C | CC(=O)NC(C)(C)c1ccc(CN2CCN(c3ccccn3)CC2)cc1 |
| 205 to 209 °C | Cc1ccc(Sc2c(Cl)c(Cl)c(C(O)=NCCO)c(C(=O)O)c2Cl)cc1 |
| 93 to 94 °C | COc1ccc(C(=O)OC2C=C(C)C(=O)CC(C)(C)C2OC(C)=O)cc1 (stereo unspecified) |
| 113 to 114 °C | Cc1nc(CO)n(C)c1[N+](=O)[O-] |
| 170 to 171 °C | O=C(O)c1ncc(Br)cc1Br |
| 62 to 63 °C | CCCCCCCC[Si](C)(C)c1cccc(Cl)c1C(=O)NCC |

| melting point | Structure (SMILES) |
| --- | --- |
| 222 to 224 °C | CCCCSc1cc(C(=O)O)cc(S(N)(=O)=O)c1Oc1ccccc1 |
| 160 to 161 °C | CC(C)(C)C1(O)OC(=O)c2ccc(Cl)cc21 (stereo unspecified) |
| 110 °C | C=CCSc1nc(=O)n(C(=O)NC)s1 |
| 89 to 94 °C | O=C(CNC(=O)c1cccc(-c2cccc3oc(Cc4cccc(C(F)(F)F)c4)cc23)c1)NCCO |
| 138 °C | COCCN(CCOC)c1ccc(Nc2ncc3c(C)c(C(C)=O)c(=O)n(C4CCCC4)c3n2)nc1 |
| 278 to 279 °C | CNC1=C(C#N)C(c2ccc(Cl)c([N+](=O)[O-])c2)c2ccc3ccccc3c2O1 (stereo unspecified) |
| 72 to 89 °C | CC(C)CCCC(C)NC(=O)CCC(O)c1ccccc1 (stereo unspecified) |
| 50 to 70 °C | CS(=O)(=O)c1ccc(-c2cnn(-c3cccc(Cl)c3)c(=O)c2COC(=O)c2ccccc2)cc1 |
| 122 °C | CCCCN1CC[C@@H](CNC(=O)c2cc(Cl)c(N)c3c2OCCO3)[C@H](O)C1 (relative stereo) |
| 178 to 180 °C | CN[C@@]1(C)CCN(c2c(-c3cccc(F)c3)c(C)c(C#N)c3nc(C(=O)N(C)C)oc23)C1 |
| 196 to 200 °C | Cc1nc2cc3c(cc2c(=O)[nH]1)C(N(C)c1ccc(C(=O)NC(C(=O)O)c2ccc(CC(=O)O)cc2)c(F)c1)CC3 (mixture of isomers) |
| 151 to 153 °C | Brc1ccc2nc(-c3coc4ccccc34)cn2c1 |
| 131 °C | CCCCC(C#N)c1cccc(C(=O)c2cc3cc(C(=O)OC)sc3s2)c1 (stereo unspecified) |
| 196 to 197 °C | Cc1cc2c(Cl)cc(F)c(-n3c(=O)cc(C(F)(F)F)n(C)c3=O)c2o1 |
| 156 to 157 °C | CC1(C)CCC(=O)c2c1oc(-c1ccncc1)c2-c1ccccc1 |
| 72 °C | COC(=O)c1ccc(COC2OC(CO)C(O)C(O)C2O)o1 (stereo unspecified) |
| 35 to 37 °C | C#CCOC(=O)c1cc(C)oc1C |
| 182 to 184 °C | NS(=O)(=O)c1nc(-c2cccc(Cl)c2)ns1 |
| 231 °C | c1ccc(-c2ccc(-c3nc4n(n3)Cc3ccccc3-4)cc2)cc1 |
| 105 to 106 °C | CCOC(=O)C1=Cc2cc(I)ccc2OC1C(F)(F)F (stereo unspecified) |
| 168 to 170 °C | CO/C=C(/C(=O)OC)c1ccccc1Oc1cc(O)ncn1 |
| 182 to 183 °C | CN(C)C=Nc1[nH]nc(N2CCOCC2)c1C#N |
| 68 to 70 °C | N#Cc1ccc(F)cc1C(F)(F)C(F)(F)c1ccccc1 |

| melting point | Structure (SMILES) |
| --- | --- |
| 284 to 286 °C | COC(=O)c1c(Cl)ccc2[nH]c(Sc3cccc4c(S(C)(=O)=O)c[nH]c34)nc12 |
| 153 to 154 °C | CC(=O)Nc1c(C#N)cnn1-c1c(F)c(F)c(C(F)(F)F)c(F)c1F |
| 179 to 180 °C | CCCCc1nc2c(N)nc3ccccc3c2n1CCCCS(=O)(=O)c1ccccc1 |
| 270 to 273 °C | CNc1c(F)cc2c(=O)c(C(=O)O)cn(-c3nc(N)c(F)cc3F)c2c1F |
| 96 to 98 °C | CCOC(=O)CN1C(=O)C(C(C)C)N(C(C)=O)C=C1c1ccccc1 (racemic) |
| 85.4 °C | O=C1CN2C(=O)N(c3cc(Cl)cc(Cl)c3)C(=O)C2(Cc2ccc(Br)cc2)C1 (stereo unspecified) |
| 99 to 110 °C | COc1cc(C2CCN(C(=O)CN(C)C)CC2)ccc1Nc1ncc2ccc(-c3ccccc3N(C)S(C)(=O)=O)n2n1 |
| 119 to 121 °C | C=Cc1ccc(CNc2ccccn2)c(Cl)c1 |
| 252 to 254 °C | O=S1(=O)NC(C2=CCCCC2)Nc2cc(Cl)ccc21 (stereo unspecified) |
| 215 to 216 °C | COc1ccc(S(=O)(=O)NC(=O)c2ccc(C(=O)OC(C)C)nc2)cc1 |
| 85 to 86 °C | O=[N+]([O-])c1ccc2c(c1)CN(Cc1ccccc1)CC2 |
| 127 to 129 °C | O=C(O)CCC(=O)c1ccc(-c2ccc(Cl)cc2F)cc1 |
| 223 to 225 °C | CCSc1nsc(NC(=O)Oc2ccccc2)c1C#N |
| 132 to 136 °C | CCOCCOc1ccccc1COc1ccc2c(c1)C=C(C(=O)Nc1ccc(CN(C)C3CCOCC3)cc1)CCS2(=O)=O |
| 110 to 115 °C | OCCCC(c1c[nH]c2ccccc12)c1c[nH]c2ccccc12 |
| 165 to 167 °C | CS(=O)(=O)c1ccc(-c2ccc(S(=O)(=O)CC(CO)N(O)C=O)cc2)cc1 (stereo unspecified) |
| 171 to 172 °C | O=c1c2cc(F)c(N3CCCC3)nc2n(Cc2ccccc2)c(=O)n1OCc1ccccc1 |
| 128 to 130 °C | Fc1cccc(F)c1-c1nn(-c2ccccc2C(F)(F)F)c(=S)o1 |
| 245 to 247 °C | NC1=CCC(c2nc3c(-c4cnn(-c5ccc(F)cc5)c4)cccn3n2)(C2CCNCC2)C=C1 (stereo unspecified) |
| > 300 °C | N#Cc1ccc(-c2ccc(C(=O)O)s2)cc1 |
| 200 to 201 °C | CCCS(=O)(=O)c1ccc(NS(=O)(=O)c2cccs2)c2[nH]c(C(=O)NCCSC(c3ccccc3)(c3ccccc3)c3ccccc3)cc12 |

| Structure (SMILES) | melting point |
| --- | --- |
| OC1(c2ccc(-c3ccc(F)cc3)cc2)CN2CCC1CC2 (stereo unspecified) | 172 to 173 °C |
| O=[N+]([O-])c1ccc2c(c1)C(c1ccccc1)=NCc1cc(CO)nn1-2 | 192 to 194 °C |
| COc1ccc2c(c1)C(c1ccc(Cl)cc1)=NC(CC(=O)NC1CCCCC1)c1nnc(C)n1-2 (stereo unspecified) | > 260 °C |
| Cc1cc(NC(=O)C(C)(O)COc2ccc(CC#N)cc2)ccc1[N+](=O)[O-] (stereo unspecified) | 143 to 145 °C |
| OC1(c2ccc(Cl)c(Cl)c2)c2ccccc2C2=NCCN21 (stereo unspecified) | 203 to 205 °C |
| COC(=O)C12OCC34C(CC5C(C)=C(O)C(=O)CC5(C)C3C(O)C1O)OC(=O)C(OC(=O)C=C(C)C(C)C)C24 (stereo unspecified) | 220 to 223 °C |
